Source: the NIST ThermoML archive (doi:10.1016/j.fluid.2006.03.015)

Assay: molar heat capacity at constant pressure
Conditions: 101.33 kPa, Liquid

CCCCCC[n+]1ccn(C)c1.O=S(=O)([N-]S(=O)(=O)C(F)(F)F)C(F)(F)F
Conditions	molar heat capacity at constant pressure [J/K/mol]
318.17 K, Large sample (1 g) DSC	668
320.15 K, Small sample (50 mg) DSC	672
323.13 K, Large sample (1 g) DSC	672
323.15 K, modulated-temperature differential scanning calorimetry MDSC	680
325.15 K, Small sample (50 mg) DSC	675
328.14 K, Large sample (1 g) DSC	673
328.15 K, modulated-temperature differential scanning calorimetry MDSC	682
330.15 K, Small sample (50 mg) DSC	679
333.15 K, modulated-temperature differential scanning calorimetry MDSC	685
333.16 K, Large sample (1 g) DSC	673
335.15 K, Small sample (50 mg) DSC	681
338.15 K, modulated-temperature differential scanning calorimetry MDSC	688
338.16 K, Large sample (1 g) DSC	675
340.15 K, Small sample (50 mg) DSC	684
343.15 K, modulated-temperature differential scanning calorimetry MDSC	689
343.17 K, Large sample (1 g) DSC	676
345.15 K, Small sample (50 mg) DSC	686
348.15 K, modulated-temperature differential scanning calorimetry MDSC	693
348.18 K, Large sample (1 g) DSC	677
350.15 K, Small sample (50 mg) DSC	688
353.13 K, Large sample (1 g) DSC	680
353.15 K, modulated-temperature differential scanning calorimetry MDSC	695
355.15 K, Small sample (50 mg) DSC	691
358.12 K, Large sample (1 g) DSC	682
358.15 K, modulated-temperature differential scanning calorimetry MDSC	698
360.15 K, Small sample (50 mg) DSC	693
363.15 K, modulated-temperature differential scanning calorimetry MDSC	701
363.16 K, Large sample (1 g) DSC	686
365.15 K, Small sample (50 mg) DSC	696
368.15 K, modulated-temperature differential scanning calorimetry MDSC	705
368.18 K, Large sample (1 g) DSC	689
370.15 K, Small sample (50 mg) DSC	700
373.13 K, Large sample (1 g) DSC	691
373.15 K, modulated-temperature differential scanning calorimetry MDSC	706
375.15 K, Small sample (50 mg) DSC	703
378.13 K, Large sample (1 g) DSC	694
378.15 K, modulated-temperature differential scanning calorimetry MDSC	709
380.15 K, Small sample (50 mg) DSC	706
383.15 K, modulated-temperature differential scanning calorimetry MDSC	711
383.17 K, Large sample (1 g) DSC	697
385.15 K, Small sample (50 mg) DSC	709
388.15 K, modulated-temperature differential scanning calorimetry MDSC	714
388.16 K, Large sample (1 g) DSC	698
390.15 K, Small sample (50 mg) DSC	713
393.14 K, Large sample (1 g) DSC	703
393.15 K, modulated-temperature differential scanning calorimetry MDSC	716
395.15 K, Small sample (50 mg) DSC	716
398.15 K, modulated-temperature differential scanning calorimetry MDSC	718
398.18 K, Large sample (1 g) DSC	706
400.15 K, Small sample (50 mg) DSC	720
403.15 K, modulated-temperature differential scanning calorimetry MDSC	720
403.16 K, Large sample (1 g) DSC	709
405.15 K, Small sample (50 mg) DSC	725
408.13 K, Large sample (1 g) DSC	712
408.15 K, modulated-temperature differential scanning calorimetry MDSC	723
410.15 K, Small sample (50 mg) DSC	728
413.15 K, modulated-temperature differential scanning calorimetry MDSC	723
413.16 K, Large sample (1 g) DSC	716
415.15 K, Small sample (50 mg) DSC	732
418.13 K, Large sample (1 g) DSC	719
420.15 K, Small sample (50 mg) DSC	736
425.15 K, Small sample (50 mg) DSC	739

CCCCn1cc[n+](C)c1.O=S(=O)([O-])C(F)(F)F [1-butyl-3-methylimidazolium trifluoromethanesulfonate]
Conditions	molar heat capacity at constant pressure [J/K/mol]
313.16 K, Large sample (1 g) DSC	448
315.15 K, Small sample (50 mg) DSC	449
318.15 K, Large sample (1 g) DSC	449
320.15 K, Small sample (50 mg) DSC	451
323.14 K, Large sample (1 g) DSC	451
325.15 K, Small sample (50 mg) DSC	452
328.12 K, Large sample (1 g) DSC	451
328.15 K, modulated-temperature differential scanning calorimetry MDSC	443
330.15 K, Small sample (50 mg) DSC	454
333.15 K, modulated-temperature differential scanning calorimetry MDSC	446
333.17 K, Large sample (1 g) DSC	450
335.15 K, Small sample (50 mg) DSC	457
338.15 K, Large sample (1 g) DSC	453
338.15 K, modulated-temperature differential scanning calorimetry MDSC	448
340.15 K, Small sample (50 mg) DSC	460
343.14 K, Large sample (1 g) DSC	455
343.15 K, modulated-temperature differential scanning calorimetry MDSC	450
345.15 K, Small sample (50 mg) DSC	462
348.15 K, modulated-temperature differential scanning calorimetry MDSC	453
348.18 K, Large sample (1 g) DSC	456
350.15 K, Small sample (50 mg) DSC	465
353.15 K, modulated-temperature differential scanning calorimetry MDSC	454
353.18 K, Large sample (1 g) DSC	459
355.15 K, Small sample (50 mg) DSC	468
358.13 K, Large sample (1 g) DSC	463
358.15 K, modulated-temperature differential scanning calorimetry MDSC	458
360.15 K, Small sample (50 mg) DSC	470
363.14 K, Large sample (1 g) DSC	467
363.15 K, modulated-temperature differential scanning calorimetry MDSC	460
365.15 K, Small sample (50 mg) DSC	473
368.14 K, Large sample (1 g) DSC	471
368.15 K, modulated-temperature differential scanning calorimetry MDSC	463
370.15 K, Small sample (50 mg) DSC	476
373.13 K, Large sample (1 g) DSC	472
373.15 K, modulated-temperature differential scanning calorimetry MDSC	464
375.15 K, Small sample (50 mg) DSC	479
378.12 K, Large sample (1 g) DSC	474
378.15 K, modulated-temperature differential scanning calorimetry MDSC	468
380.15 K, Small sample (50 mg) DSC	481
383.15 K, modulated-temperature differential scanning calorimetry MDSC	468
383.16 K, Large sample (1 g) DSC	477
385.15 K, Small sample (50 mg) DSC	484
388.15 K, Large sample (1 g) DSC	479
388.15 K, modulated-temperature differential scanning calorimetry MDSC	471
390.15 K, Small sample (50 mg) DSC	487
393.13 K, Large sample (1 g) DSC	482
393.15 K, modulated-temperature differential scanning calorimetry MDSC	472
395.15 K, Small sample (50 mg) DSC	489
398.15 K, modulated-temperature differential scanning calorimetry MDSC	475
398.16 K, Large sample (1 g) DSC	484
400.15 K, Small sample (50 mg) DSC	492
403.14 K, Large sample (1 g) DSC	487
403.15 K, modulated-temperature differential scanning calorimetry MDSC	476
405.15 K, Small sample (50 mg) DSC	495
408.15 K, modulated-temperature differential scanning calorimetry MDSC	477
408.17 K, Large sample (1 g) DSC	489
410.15 K, Small sample (50 mg) DSC	498
413.14 K, Large sample (1 g) DSC	491
413.15 K, modulated-temperature differential scanning calorimetry MDSC	481
415.15 K, Small sample (50 mg) DSC	500
418.17 K, Large sample (1 g) DSC	494
420.15 K, Small sample (50 mg) DSC	503
423.14 K, Large sample (1 g) DSC	494
425.15 K, Small sample (50 mg) DSC	506
